{
  "source": "patent US20190360054A1",
  "about": "“METHOD FOR DIAGNOSIS OF METASTATIC CANCER OR TAXANE-BASED DRUG-RESISTANT CANCER BY USING LMCD1 PROTEIN AND GENE CODING THEREFOR” (AICT (ADVANCED INSTITUTES OF CONVERGENCE TECHNOLOGY), priority 2016, published 2019)",
  "key": {"[1]": {"system": "MCF10CA1a.cl1 cells, MDA-MB231 cells", "experiment": "MTT assay of paclitaxel resistance after Smad3 EPSM adenovirus infection", "assay_type": "cell-based, human", "text": "GFP, Smad3 wild-type, C-terminal phosphorylation-inhibiting mutant (3SA), Smad3 linker phosphorylation-activating mutant (STD), and a Smad3 linker phosphorylation-inhibiting mutant (EPSM) adenovirus were supplied from Dr. Sushil G. Rane (NIDDK, NIH, Bethesda, Md.). To measure transduction efficiency, GFP adenovirus was used as a control. The cells were transfected with 75 to 100 virus particles/cell in a cell solution, and each transfection procedure was repeated three times.\nIn particular, MCF10CA1a.cl1 cells, MDA-MB231 cells, and the cells produced according to Example 3-1 were seeded in 96-wells at a density of 3,000 cells/well and incubated for 24 hours. The culture solution was removed and a culture solution containing paclitaxel or docetaxel was added to each well to a final volume of 100 μl/well. After incubation for 72 hours, the culture solution was removed from the culture, and 0.5 mg/ml of 3-(4,5-dimethylthiazol-2-yl)-2,5-diphenyltetrazolium bromide (MTT) was added to each well, followed by incubation for 2 hours. Media containing an MTT solution was carefully removed, and 200 μl of dimethyl sulfoxide was added to each well, followed by incubation at room temperature for 5 minutes. Absorbance at 580 nm was measured using a 96-well microplate detector (Molecular Devices)."}, "[2]": {"experiment": "Production of paclitaxel-resistant cells by repeated paclitaxel treatment", "assay_type": "cell-based", "conditions": "paclitaxel raised in increments of 0.5 nM over passages; read-out: IC50 value of paclitaxel at which the resistant cells did not die", "experimental": "In particular, parental cells were treated with paclitaxel at a small concentration of 0.5 nM, and alive cells were repeated treated with paclitaxel three or four times while being passaged."}, "[3]": {"system": "MCF10CAT1k.cl2 (M-II) and MCF10CA1a.cl1 cells", "experiment": "MTT assay of paclitaxel resistance after treatment with LMCD1-containing conditioned media", "assay_type": "cell-based, human", "conditions": "cells treated with conditioned media of LMCD1-overexpressing MCF10CA1a.cl1 cells", "experimental": "For MTT assay to examine resistance to paclitaxel, the cells were seeded in 96 wells at a density of 3,000 cells per well and incubated for 24 hours. The culture solution was removed, and a culture solution containing the concentrated conditioned media acquired from LPCX and LMCD1-overexpressing MCF10CA1a.cl1 cells was added to each well to a final volume of 100 μl/well. After incubation for 72 hours, the culture solution was removed from the culture, and 0.5 mg/ml of 3-(4,5-dimethylthiazol-2-yl)-2,5-diphenyltetrazolium bromide (MTT) was added to each well, followed by incubation for 2 hours. PBS containing an MTT solution was carefully removed, and 200 μl of dimethyl sulfoxide was added to each well, followed by incubation at room temperature for 5 minutes. Absorbance at 580 nm was measured using a 96-well microplate detector (Molecular Devices)."}, "[4]": {"system": "LMCD1-overexpressing MCF10CA1a.cl1 cells", "experiment": "MTT assay of susceptibility to paclitaxel in LMCD1-overexpressing cells", "assay_type": "cell-based, human", "conditions": "MCF10CA1a.cl1 cells when LMCD1 was overexpressed, 72 hours", "experimental": "To investigate whether LMCD1 protein-overexpressing breast cancer cells have resistance to a taxane-based anticancer agent, an MTT assay, which is used to evaluate cell viability, was performed on MCF-10CA1a.cl1, which are human MCF-10A-based breast cancer cell lines, and MDA-MB231. The MCF-10CA1a.cl1 and MDA-MB231 cell lines are characterized as malignant breast cancer cell lines with high metastasis.\nIn particular, human MCF-10A-based breast cancer cell lines, i.e., MCF-10CA1a.cl1 and MDA-MB231, were maintained in a DMEM culture solution containing 10% fetal bovine serum and 1% penicillin/streptomycin (WeIGENE) in a CO2 incubator at 37° C.\nTo overexpress the LMCD1 protein in cells, LMCD1 was cloned into retroviral vector pLPCX, and LMCD1 retrovirus was obtained using Plat-GP cells. The metastatic breast cancer cells were infected with the LMCD1 retrovirus, LMCD1 protein-overexpressing cells were selected using puromycin, and then the selected cells were incubated in a DMEM culture solution containing 10% fetal bovine serum and 1% penicillin/streptomycin (WeIGENE) in a CO2 incubator at 37° C.\nThe cells were seeded in 96 wells at a density of 3,000 cells per well and incubated for 24 hours. […] Absorbance at 580 nm was measured using a 96-well microplate detector (Molecular Devices)."}, "[5]": {"system": "LMCD1 mRNA in MDA-MB231 cells", "experiment": "RT-PCR of LMCD1 mRNA after TGF-β treatment", "assay_type": "cell-based, human", "conditions": "5 ng/ml TGF-β, 24 hours, Smad3 EPSM adenovirus-infected cells", "experimental": "For the measurement of LMCD1 mRNA, MDA-MB231 cells were infected with GFP and Smad3. EPSM adenovirus for 2 days, and then 2 hours before TGF-β treatment, the cells were pre-treated with 10 μM of SB431542 and treated with 5 ng/ml of TGF-β, followed by incubation for 24 hours. Total RNA was extracted from the cells using a TRIzol reagent (Invitrogen) in accordance with the manufacturer's protocol. The extracted RNA was converted into cDNA using M-MLV reverse transcriptase (Promega). The cDNA was synthesized and subjected to RT-PCR using a specific primer pair by using an AccuPower™ PCR PreMix kit (Bioneer Co.). Gene mRNAs were normalized to GAPDH."}, "[6]": {"system": "LMCD1 promoter in MCF10CA1a.cl1 cells", "experiment": "LMCD1 promoter luciferase assay with TGF-β stimulation", "assay_type": "cell-based, human", "conditions": "3 ng/ml TGF-β, 24 hours, Smad3 EPSM adenovirus-infected cells", "experimental": "In particular, for the LMCD1 promoter analysis, MCF10CA1a.cl1 cells were infected with GFP and Smad3. EPSM adenovirus for 2 days, and then transiently transfected with an Lmcd1 promoter using FuGENE HD (Promega). 24 hours before harvesting, the cells were stimulated with 3 ng/ml of TGF-β. Luciferase activity was analyzed using a Luciferase Assay System kit (Promega) in accordance with the manufacturer's protocol. All assays were performed in triplicate, and all values were normalized to transfection efficiency as determined by β-galactosidase activity."}},
  "data": [
    {"compound": "CC(=O)O[C@H]1C(=O)[C@@]2(C)[C@H]([C@H](OC(=O)c3ccccc3)[C@]3(O)C[C@H](OC(=O)[C@H](O)[C@@H](NC(=O)c4ccccc4)c4ccccc4)C(C)=C1C3(C)C)[C@]1(OC(C)=O)CO[C@@H]1C[C@@H]2O", "note": "[paclitaxel]", "values": [
      {"measurement": "susceptibility to paclitaxel (MTT)", "setting": "[1]; LMCD1 depleted in Smad3 EPSM adenovirus-infected cells (EPSM-SV-shLmcd1 #1)", "value": "restored"},
      {"measurement": "paclitaxel resistance (cell viability, MTT)", "setting": "[1]; Smad3 linker phosphorylation blocked (EPSM adenovirus), compared to control", "value": "induced"},
      {"measurement": "IC50", "setting": "[2]", "value": 50, "unit": "nM"},
      {"measurement": "resistance to paclitaxel (MTT)", "setting": "[3]", "value": "significantly increased"},
      {"measurement": "resistance to paclitaxel (cell viability, MTT)", "setting": "[4]", "value": "increased"}
    ]},
    {"compound": "TGF-β", "values": [
      {"measurement": "LMCD1 mRNA expression level", "setting": "[5]", "value": "increased"},
      {"measurement": "LMCD1 transcriptional activity (luciferase)", "setting": "[6]", "value": "increased"}
    ]}
  ]
}
